Assay results: article PMC10536132, “Arginine Gemini-Based Surfactants for Antimicrobial and Antibiofilm Applications: Molecular Interactions, Skin-Related Anti-Enzymatic Activity and Cytotoxicity” (Molecules, 2023)
Marks after values point to notes of the source that are not given here.

Columns and labels:
[1] = Apparent pKa by direct titration with NaOH; assay type: physicochemical; settings: aqueous solution, concentration above the minimum aggregation concentration; pH at semi-equivalence point
Experimental: In order to determine the ionization state of these gemini surfactants at the pH used to investigate their biological properties, the apparent acid pKa was determined for each of them. The pKap value has been determined by means of a direct titration with NaOH of an aqueous solution of each compound. The surfactant concentrations used were in all cases higher than the minimum aggregation concentration, thus avoiding possible deviations in the pK value due to the monomer–aggregate balance. The pKap values can be estimated from the pH at the semi-equivalence point that is reached when the molar ratio of protonated and non-protonated species is 1:1. In these conditions, we have that the pH = pKa.
The pKa value of each compound has been determined by means of a direct titration with NaOH of an aqueous solution of each compound. The pH was measured using the pH electrode Thermo Electron Corporation ORION 8103SC and the temperature was controlled by a thermostatic bath, Heto CBN 8-30. The pKa values can be estimated from the pH at the semi-equivalence point, which contains a 1:1 molar ratio of protonated and non-protonated species; at this point, pH = pKap.

[2] = set-up: method as in doi:10.1021/la981295l; settings: cited from earlier work
[3] = set-up: method as in doi:10.1021/la981295l; settings: cited from earlier work; remark: listed apart in the source
[4] = system: Pseudomonas aeruginosa PAO1 biofilm; assay: Biofilm eradication, crystal violet; assay type: cell-based; settings: P. aeruginosa PAO1, at 32 μg/mL
Experimental: (§1) The ability of these geminis to disperse and eradicate biofilms once formed on the propylene surfaces of the microtiter plates was evaluated using the same bacterial strains. […] The susceptibility of both biofilms against the tested surfactants was similar. At a low concentration of 32 μg/mL, C3(CA)2 and C3(LA)2 were able to eradicate around 60–70% of preformed biofilm; however, at this concentration, the […] hydrophobic compound, C3(OA)2, eradicated less than 30% of biofilm. At high concentrations, the eradication percentage is similar for all alkyl chains. […] In this case, at low concentrations, there is not a clear dependence between the antibiofilm properties and the spacer; however, at a high concentration, the best effectivity was obtained for the longer spacer chains.
(§2) Antibiofilm activity was assessed against biofilm-producing strains of methicillin-resistant Staphylococcus aureus (MRSA) ATCC 43300 and Pseudomonas aeruginosa PAO1. Biofilm inhibition and eradication capacities of the gemini surfactants were evaluated against adherent bacterial biofilms grown in 96-well microtiter plates. Bacteria were grown overnight in tryptic soy agar at 37 °C for 24 h. The bacteria were suspended in lysogeny broth with glucose (1%) at 1.5 × 10^8 CFU/mL.
(§3) Biofilm eradication procedure: For mature biofilm formation, 200 μL of the diluted bacterial suspension was added to each well in a 96-well microplate and incubated at 37 °C for 24 h. The wells were gently rinsed with phosphate-buffered saline (PBS) and 200 μL of the corresponding gemini surfactant solution was added to each well and incubated again at 37 °C for 24 h. Two-fold serial dilutions of the gemini surfactant were used (4–128 μg/mL). After the plates were air dried, the biofilms were stained with 50 μL of 0.1 of % crystal violet for 25 min. The plates were rinsed with water and then 150 μL of 96% ethanol containing 10% acetic acid was added to all 96-well plates to dissolve the remaining crystal violet-stained biofilm. The absorbance value was recorded at 570 nm. Each assay was conducted at least three times and the results were averaged.

[5] = system: methicillin-resistant Staphylococcus aureus (MRSA) ATCC 43300 biofilm; assay: Biofilm eradication, crystal violet; assay type: cell-based; settings: at 32 μg/mL
Experimental: as §1, §2, §3

[6] = system: Pseudomonas aeruginosa PAO1 biofilm; assay: Biofilm inhibition, crystal violet; assay type: cell-based; settings: P. aeruginosa PAO1, 24 h contact, 2–128 μg/mL tested
Experimental: (§4) The ability of MRSA and P. aeruginosa to form biofilms on propylene surfaces in the presence of bis-Args was determined. The two bacterial cells were kept in contact with the gemini surfactants at different concentrations from 2 to 128 μg/mL for 24 h. Then, the percentage of biofilm inhibition was determined.
as §2
(§5) Biofilm inhibition procedure: 100 μL of the gemini surfactant at different concentration values was added to each well in a 96-well microplate, then, 100 μL of the diluted bacterial suspension was added to the wells. Two-fold serial dilutions of the gemini surfactants to be tested were used (2–128 μg/mL). Microtiter plates were incubated at 37 °C for 24 h. Spent growth media was then discarded and biofilm was fixed with 150 μL methanol for 10 min. After the plates were air dried, the biofilms were stained with 50 μL of 0.1 of % crystal violet for 25 min. The plates were rinsed with water and then 150 μL of 96% ethanol containing 10% acetic acid was added to all 96-well plates to dissolve the remaining crystal violet-stained biofilm. The absorbance value was recorded at 570 nm. Each assay was performed at least three times and the results were averaged.

[7] = system: methicillin-resistant Staphylococcus aureus (MRSA) ATCC 43300 biofilm; assay: Biofilm inhibition, crystal violet; assay type: cell-based; settings: 24 h contact, 2–128 μg/mL tested
Experimental: as §4, §2, §5

[8] = system: Gram-positive and Gram-negative bacteria; assay: Minimum inhibitory concentration (MIC), broth microdilution; assay type: cell-based; settings: planktonic bacteria, 24 h at 37 °C, values only in Figure 2
Source text: The Gram-positive bacteria tested include some problematic microorganisms such us L. monocytogenes; these bacteria cause listeriosis, a serious disease that has grown considerably in industrialized countries due to the increased ratio of immunosuppressed persons and the extensive use of refrigerated food. We have also tested the effectivity of these surfactants against methicillin-resistant Staphylococcus aureus (MRSA), which is known as a major cause of hospital-acquired infections and, at this time, is a remarkable public health problem. […] For comparison, this figure also includes the MIC values of a LAM (lauroyl arginine methyl ester) surfactant that can be considered the single-stranded homologue of these geminis and the BAC (benzalkonium ammonium chloride), a quaternary ammonium surfactant widely used as antiseptic.
Antimicrobial tests were carried out against the following microorganisms: Bacillus subtilis ATCC 6633, Staphylococcus epidermidis ATCC 12228, Staphylococcus aureus ATCC 29213, Listeria monocytogenes ATCC 15313, Enterococcus faecalis ATCC 29212, Escherichia coli ATCC 25922, Acinetobacter baumannii ATCC 19606, Klebsiella aerogenes ATCC 13048, methicillin-resistant Staphylococcus aureus ATCC 43300 and Pseudomonas aeruginosa PAO1. […] The growth of the microorganisms was determined visually after incubation for 24 h at 37 °C. […]

[9] = Cell viability, NRU assay; assay type: cell-based, human; settings: human, HaCaT cells (immortal human keratinocytes); NRU, HaCaT, surfactant in solution at 35.6 µg/mL, 24 h; read-out: cellular viability
Experimental: (§6) The immortal human keratinocyte (HaCaT) and the squamous cell carcinoma (A431) were obtained from Celltec, University of Barcelona. The cells were grown in DMEM medium (4.5 g/L glucose) supplemented with 10% (v/v) FBS, 2 mM L-glutamine, 100 U/mL of penicillin and 100 μg/mL of streptomycin at 37 °C under 5% CO2. Cells were routinely cultured in 75 cm^2 culture flasks and were trypsinized using trypsin-EDTA when reached approximately 80% of confluence.
(§7) HaCaT cells (1 × 10^5 cells/mL) and A431 cells (5 × 10^4 cells/mL) were grown at the defined densities into the central 60 wells of a 96-well microplate. Cells were incubated for 24 h under 5% CO2 at 37 °C. The medium was then removed and the cells were incubated with the surfactants (100 μL), previously diluted 1:1 (v/v), reaching a concentration of […] in DMEM medium supplemented with 5% FBS using two different colorimetric methods for quantification, as follows.
(§8) The accumulation of the neutral red dye in the lysosomes of viable, undamaged cells constitutes the basis of the neutral red uptake (NRU) assay. After the cells were incubated for 24 h with the corresponding systems at 35.6 µg/mL, the medium was removed and the surfactants´ solutions were incubated for 3 h with the NRU dye solution (50 μg/mL) dissolved in the medium without FBS and phenol red (Lonza). Cells were then washed with sterile PBS, followed by the addition of 100 μL of a solution containing 50% ethanol absolute and 1% acetic acid in distilled water to extract the non-adhered dye. The microplates were then stirred for 5 min at 25 °C to promote the dissolution. Finally, the absorbance of the resulting solutions was measured at λ = 550 nm using a Bio-Rad 550 microplate reader (Hercules, CA, USA).

[10] = system: squamous cell carcinoma (A431); assay: Cell viability, NRU assay; assay type: cell-based; settings: A431, surfactant in solution at 35.6 µg/mL, 24 h
Experimental: as §6, §7, §8

[11] = biological target: porcine pancreatic elastase (Sus scrofa, UniProt P00772); assay: Elastase inhibitory assay; assay type: biochemical; settings: 40 µL of 1000 µg/mL stock; EGCG 250 μM
porcine pancreatic elastase, sequence (P00772 27-266): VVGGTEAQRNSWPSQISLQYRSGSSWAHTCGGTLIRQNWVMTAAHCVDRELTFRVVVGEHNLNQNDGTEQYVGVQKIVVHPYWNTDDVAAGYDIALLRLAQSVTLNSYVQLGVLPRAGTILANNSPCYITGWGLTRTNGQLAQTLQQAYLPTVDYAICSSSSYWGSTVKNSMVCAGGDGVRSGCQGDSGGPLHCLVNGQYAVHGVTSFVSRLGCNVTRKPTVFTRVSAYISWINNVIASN
Experimental: The elastase inhibition was tested according to the method described by […] et al.. First, a stock solution of each surfactant at 1000 μg/mL was prepared in sterile ultrapure water. A stock solution of porcine pancreatic elastase at 3.33 mg/mL in sterile ultrapure water was also prepared. The substrate […] (Ala) 3-p-nitroanilide was dissolved in 0.2 mM Tris-HCl buffer solution (pH 8.0). The samples (40 μL) were then diluted and incubated together with the enzyme for 15 min prior to the substrate addition. Negative control was sterile ultrapure water, while EGCG (250 μM or 0.114 mg/mL) was used as the positive control. The absorbance at λ = 410 nm was measured immediately after the substrate addition and continuously during the next 2 h using an Elx800 Microplate Reader (Biotek®). […] The anti-elastase activity (in %), determined in triplicate, was calculated according to the following equation:(2) Elastase inhibitory activity %=A1-A2/A1×100 where A1 and A2 represent the absorbance in the absence and presence of the testing samples, respectively.

[12] = set-up: method as in doi:10.1021/la981295l; settings: cited from earlier work; remark: listed apart in the source
bovine hyaluronidase = assay: Hyaluronidase inhibitory activity; assay type: biochemical; settings: negative inhibition values
Experimental: The hyaluronidase inhibitory activity was performed according to the method used by Altinyay et al. with some modifications. Briefly, a work solution containing bovine hyaluronidase (7900 units/mL) in 0.1 M acetate buffer (pH 3.6) was prepared. Fifty microliters of the work solution were mixed 1:1 with the surfactants’ solution in 5% DMSO. For the negative control, 50 μL of 5% DMSO was used, while EGCG was used as positive control. After 20 min of incubation at 37 °C, 50 μL of calcium chloride (12.5 mM) was added to the mixture and again incubated for 20 min at 37 °C. At that point, 250 μL sodium hyaluronate (1.2 mg/mL) was added and incubated for 40 min at 37 °C. After incubation, the mixture was treated with 50 μL of 0.4 M NaOH and 100 μL of 0.2 M sodium borate and then incubated for 3 min in a boiling water bath. After cooling to room temperature, 1.4 mL of p-dimethylaminobenzaldehyde solution was added to the reaction mixture, being further incubated at 37 °C for 20 min. The resulting colored solution was measured at λ = 585 nm (PerkinElmer-Lambda 35, Brazil). The hyaluronidase inhibitory activity of each sample was calculated according to the following formula:(3) Hyaluronidase inhibitory activity %=A1−A2/A1×100 where A1 and A2 represent the absorbance in the absence and presence of the testing sample, respectively.

pKap [1] | anti-elastase activity (inhibition) [11] [%] | increase of hyaluronidase enzymatic activity (bovine hyaluronidase) [%] | SMILES | CMC (mM) Fluorescence [2] | CMC (mM) Conductivity [3] | preformed biofilm eradicated [4] | preformed biofilm eradicated [5] | concentration that inhibits biofilm formation [6] [µg/mL] | concentration that inhibits biofilm formation [7] [µg/mL] | antimicrobial activity (MIC), in words [8] | viability at 24 h, 35.6 µg/mL [9] [%] | cytotoxicity, in words [10] | CMC (mM) Surface Tension [12] | γcmc ([12]; surface tension at the cmc)
10.9 | – | – | CCCCCCCCCCCC(=O)NC(CCCNC(=N)N)C(=O)NCC(O)CNC(=O)C(CCCNC(=N)N)NC(=O)CCCCCCCCCCC (stereo not drawn) [C3(LA)2OH, Bis (N^α-lauroyl arginine) (2-hydroxy-1,3-propane) diamide] | 0.6 * mM | 0.6 * mM | – | – | – | – | – | – | – | – | –
– | – | – | CCCCCCCC(=O)NC(CCCNC(=N)N)C(=O)NCCCNC(=O)C(CCCNC(=N)N)NC(=O)CCCCCCC (stereo not drawn) [C3(OA)2] | 8 * mM | – | less than 30% | less than 30% | 128 | 128 | lowest antimicrobial efficiency (highest MIC values) | – | – | – | –
10.5 | 10.5 | 47.2 | CCCCCCCCCCCC(=O)NC(CCCNC(=N)N)C(=O)NCCCCCCNC(=O)C(CCCNC(=N)N)NC(=O)CCCCCCCCCCC (stereo not drawn) [C6(LA)2] | 0.4 * mM | 0.4 * mM | – | – | – | – | – | 99.3 | did not cause any apparent cytotoxicity | 0.002 * mM | 30 * mN/m
